Experimental data: patent US11767330B2, “Citrate salt, pharmaceutical compositions, and methods of making and using the same” (Foghorn Therapeutics Inc., priority 2021, dated 2023)
“Also recorded” adds a separate entry of the source.

Key:
Assay type in all cases: physicochemical
[1] = Solid form characterisation (TGA/DSC, KF, XRPD, HPLC chemical and chiral purity); settings: initial, before stability test
Description: Differential Scanning Calorimetry (DSC). DSC was performed using a Mettler Toledo DSC^3+. The sample (1-5 mg) was weighed directly in a 40 μL hermetic aluminum pan with a pinhole and analyzed according to the parameters in Tables 41 and 42.
High Performance Liquid Chromatography (HPLC). HPLC was conducted using an Agilent 1220 Infinity LC or Agilent 1220 Infinity 2 LC equipped with diode array detector (DAD). Flow rate range of the instrument is 0.2-5.0 mL/min, operating pressure range is 0-600 bar, temperature range is 5° C. above ambient to 60° C., and wavelength range is 190-600 nm.
Karl Fischer (KF) Titration. KF titration for water determination was performed using a Mettler Toledo C20S Coulometric KF Titrator equipped with a current generator cell with a diaphragm, and a double-platinum-pin electrode. The range of detection of the instrument is 1 ppm to 5% water. Aquastar™
CombiCoulomat fritless reagent was used in both the anode and cathode compartments. Samples of approximately 0.03-0.10 g were dissolved in the anode compartment and titrated until the solution potential dropped below 100 mV. Hydranal 1 wt. % water standard was used for validation prior to sample analysis.
Simultaneous Thermogravimetric Analysis and Differential Scanning Calorimetry (TGA and DSC). TGA and DSC were performed on the same sample simultaneously using a Mettler Toledo TGA/DSC^3+. Protective and purge gas was nitrogen at a flowrate of 20-30 mL/min and 50-100 mL/min, respectively. The desired amount of sample (5-10 mg) was weighed directly in a hermetic aluminum pan with pinhole and analyzed according to the parameters below:
(§1) X-Ray Powder Diffraction (XRPD). XRPD was performed using a Rigaku MiniFlex 600 in reflection mode (i.e., Bragg-Brentano geometry). Samples were prepared on Si zero-return wafers.
XRPD was performed using a Bruker D8 Advance equipped with LYNXEYE detector in reflection mode (i.e., Bragg-Brentano geometry). Samples were prepared on Si zero-return wafers.

[2] = Dynamic vapor sorption (DVS) hygroscopicity; settings: for Hygroscopicity by DVS (up to 95% RH): mass change up to 95% RH
Description: Dynamic Vapor Sorption (DVS). DVS was performed using a Q5000SA. The sample (5-15 mg) was loaded into a metallic quartz sample pan, suspended from a microbalance, and exposed to a humidified stream of nitrogen gas. Weight changes were relative to a matching empty reference pan opposite the sample, suspended from the microbalance. One of two methods was used:
Method 1: The sample was held for a minimum of 10 min at each level and only progressed to the next humidity level if there was <0.002% change in weight between measurements (interval: 5 s) or 60 min had elapsed.

[3] = Stability at 40° C./75% RH for 1 week; settings: for chemical purity by HPLC after storage / chiral purity by HPLC after storage / XRPD after storage: 40° C. and 75% RH
Description: The humid environment was generated with saturated sodium chloride in water in a sealed container. After one week, the sample appeared pale-yellow upon inspection.
(§2) The one-week stability at 75% RH was also tested. In this experiment, 12 mg of the dried crystalline freebase from MeOH were weighted in a 4 mL vial and placed in a 20 mL vial set at 40° C. and 75% RH for 1 week. The humid environment was generated with saturated sodium chloride in water in a sealed container.
as §2, with “the” for “the dried”, “was” for “were”

[4] = Physical stability by XRPD upon drying at 50° C. under vacuum and exposure to >95% RH; settings: for XRPD pattern Dry: after drying; for XRPD pattern Dry / XRPD pattern Humid / XRPD pattern Wet: Am = amorphous; for XRPD pattern Humid: after exposure to humidity; for XRPD pattern Wet: solid form of compound R-D1
Description: as §1
XRPD analysis was done in three stages. XRPD of the wet cake was done for all samples where solids were observed.
(§3) The solids were then exposed to >95% RH overnight. This humid environment was produced by placing a beaker of saturated potassium sulfate in water in a sealed container at RT. The materials exposed to these conditions were evaluated by XRPD, and their patterns were compared to those produced before.
as §3, with “The pattern FF-B was dried at 50° C. under vacuum for 3 h after filtration for further XRPD analysis. The solids” for “The solids”, “to those of the crystalline freebase along each step.” for “to those produced before.”

[5] = Thermal treatment of solid forms followed by XRPD; settings: heated, held, cooled down to RT
Description: Thermal Treatment of Amorphous Salt. […] The thermal events were measured by TGA/DSC and XRPD was used to study the resulting materials.
To study the effect of the temperature, the compound was subjected to a thermal treatment consisting of heating up the sample from RT up to 100° C. at a 10° C./min, and holding this temperature for 5 min to subsequently cool down to RT. The sample was collected and further analyzed with XRPD.
The sample was subjected to a thermal treatment consisting of heating the sample gradually (10° C./min) up to the first two thermal events shown by TGA/DSC analysis, i.e., 130 and 225° C. In each case, the temperature was held for 5 min, followed by cooling down to RT. The sample was collected and further analyzed with XRPD. […] Overall, the crystalline freebase Pattern FF-B obtained from acetone lost some crystallinity upon drying and exposure to humidity and heat.

[6] = Amorphous to crystalline studies (long-term slurries, vapor diffusion, slow evaporation); settings: Am = amorphous
Description: Long-Term Slurries. Long-term slurries were carried out for the purpose of producing crystalline forms. […] In this procedure, 30 mg of solid was added to a 2 mL vial containing a 6.3 mm stir bar. Then, 3 vol. of solvent was added, followed by the addition of more solvent in 5 vol. increments until it formed a flowable slurry. After 10 days, the solids were filtered and transferred to an XRPD plate for further analysis on the wet cake. Overall, crystalline patterns were not observed after one week. However, a crystalline solid was observed after stirring in MeOH for about six weeks.
Vapor-Diffusion Crystallization onto Solution and Solids. […] A suitable solvent was added to completely dissolve the solid, while producing a solution of slightly undersaturated concentration. The open vial was placed inside a 20 mL scintillation vial and 3 mL of antisolvent was added to the 20 mL vial to diffuse into the solution. The 20 mL vial was capped, sealed with parafilm, and kept undisturbed at RT.
Vapor diffusion onto solids was also started. The procedure is very similar, with the only difference that the active pharmaceutical ingredient (API) is not dissolved in a solvent; the vapor diffused directly onto the solid. The samples were monitored for visual changes in the solid (color, texture, size, etc.) over 2 months.
Slow Evaporation. […] The samples that were thin slurries were filtered with a […] syringe filter to obtain a clear solution. In some cases, cosolvent was added to obtain a solution. A needle was inserted in the cap septa to allow the solvents to evaporate slowly. The solutions were monitored frequently for precipitation.

Structure (SMILES): COc1cc(-c2cn(C)c(=O)c3cnc(N4CCC4)cc23)cc(OC)c1CN1CCC(CN2CCC3(CC2)CN(c2ccc4c(c2)C(=O)N([C@@H]2CCC(=O)NC2=O)C4)C3)CC1.O=C(O)CC(O)(CC(=O)O)C(=O)O [Citrate of Compound R-D1]
- Purity by HPLC (%) [chiral] [1]: [99.05] %
- Purity by HPLC (%) chemical [1]: 99.46%
- HPLC chemical purity after DVS analysis [2]: 99.55%
- XRPD after DVS analysis [2]: did not show conversion to a crystalline pattern after performing the DVS analysis
- hygroscopicity according to the European Pharmacopeia standards (DVS) [2]: very hygroscopic
- Hygroscopicity by DVS (up to 95% RH) [2]: >25.55 wt. %
- Purity by HPLC (%) After 1 week 75% RH chemical ([3]; 40° C./75% RH): 99.12%
- XRPD pattern Dry [4]: Am
- XRPD pattern Humid [4]: Am
- XRPD pattern Wet [4]: Am

Structure (SMILES): COc1cc(-c2cn(C)c(=O)c3cnc(N4CCC4)cc23)cc(OC)c1CN1CCC(CN2CCC3(CC2)CN(c2ccc4c(c2)C(=O)N([C@@H]2CCC(=O)NC2=O)C4)C3)CC1 [Pattern FF-A]
- XRPD after thermal treatment [5]: loss of some crystallinity
- HPLC chemical purity after DVS analysis [2]: 98.68%
- XRPD after DVS analysis [2]: new signal at 26=5.8°
- hygroscopicity according to the European Pharmacopeia standards (DVS) [2]: hygroscopic
- chemical purity by HPLC after storage [3]: 98.27%
- chiral purity by HPLC after storage [3]: 94.55%
- physical stability (XRPD) upon drying at 50° C. under vacuum and exposure to >95% RH [4]: Reduction in the crystallinity

Structure (SMILES): COc1cc(-c2cn(C)c(=O)c3cnc(N4CCC4)cc23)cc(OC)c1CN1CCC(CN2CCC3(CC2)CN(c2ccc4c(c2)C(=O)N([C@@H]2CCC(=O)NC2=O)C4)C3)CC1.O=C(O)CC(O)(CC(=O)O)C(=O)O [citrate salt of compound R-D1]
- Pattern ([6]; antisolvent vapor diffusion onto solution, RT, solvent Benzyl alcohol, antisolvent Acetone): Am
- Pattern ([6]; antisolvent vapor diffusion onto solution, RT, solvent Benzyl alcohol, antisolvent EtOH): Am
- Pattern ([6]; antisolvent vapor diffusion onto solution, RT, solvent Benzyl alcohol, antisolvent MeOAc): Am
- Pattern ([6]; antisolvent vapor diffusion onto solution, RT, solvent DMAC, antisolvent ACN): Am
- Pattern ([6]; antisolvent vapor diffusion onto solution, RT, solvent DMAC, antisolvent Acetone): Am
- Pattern ([6]; antisolvent vapor diffusion onto solution, RT, solvent DMAC, antisolvent DCM): Am
- Pattern ([6]; antisolvent vapor diffusion onto solution, RT, solvent DMAC, antisolvent EtOAc): Am
- Pattern ([6]; antisolvent vapor diffusion onto solution, RT, solvent DMAC, antisolvent IPA): Am
- Pattern ([6]; antisolvent vapor diffusion onto solution, RT, solvent DMAC, antisolvent MEK): Am
- Pattern ([6]; antisolvent vapor diffusion onto solution, RT, solvent DMSO, antisolvent Acetone): Am
- Pattern ([6]; antisolvent vapor diffusion onto solution, RT, solvent DMSO, antisolvent DCM): Am
- Pattern ([6]; antisolvent vapor diffusion onto solution, RT, solvent DMSO, antisolvent EtOH): Am
- Pattern ([6]; antisolvent vapor diffusion onto solution, RT, solvent DMSO, antisolvent MEK): Am
- Pattern ([6]; antisolvent vapor diffusion onto solution, RT, solvent DMSO, antisolvent MeOAc): Am
- Pattern ([6]; vapor diffusion onto solids, over 2 months, antisolvent Chloroform): Am
- Pattern ([6]; vapor diffusion onto solids, over 2 months, antisolvent Cyclohexane): Am
- Pattern ([6]; vapor diffusion onto solids, over 2 months, antisolvent DCM): Am
- Pattern ([6]; vapor diffusion onto solids, over 2 months, antisolvent Diethyl ether): Am
- Pattern ([6]; vapor diffusion onto solids, over 2 months, antisolvent Hexanes): Am
- Pattern ([6]; vapor diffusion onto solids, over 2 months, antisolvent MeOH): Am
- Pattern ([6]; vapor diffusion onto solids, over 2 months, antisolvent Methyl cyclohexane): Am
- Pattern ([6]; vapor diffusion onto solids, over 2 months, antisolvent MtBE): Am
- XRPD after thermal treatment [5]: None of these experiments resulted in crystalline solids
- XRPD after storage [3]: did not show conversion to a crystalline form

Structure (SMILES): COc1cc(-c2cn(C)c(=O)c3cnc(N4CCC4)cc23)cc(OC)c1CN1CCC(CN2CCC3(CC2)CN(c2ccc4c(c2)C(=O)N([C@@H]2CCC(=O)NC2=O)C4)C3)CC1 [pattern FF-B]
- Purity by HPLC (%) [chiral] [1]: [96.56] %
- Purity by HPLC (%) chemical [1]: 98.85%
- XRPD after thermal treatment [5]: decreased crystallinity after exposure to 130 °C
- HPLC chemical purity after DVS analysis [2]: 99.06%
- XRPD after DVS analysis [2]: slight loss in crystallinity
- hygroscopicity according to the European Pharmacopeia standards (DVS) [2]: hygroscopic
- Hygroscopicity by DVS (up to 95% RH) [2]: >8.80 wt. %
- XRPD after storage [3]: splitting of the signal at 5.3 and 13.7°
- chemical purity by HPLC after storage [3]: 98.56%
- chiral purity by HPLC after storage [3]: 96.13%
- Purity by HPLC (%) After 1 week 75% RH [chiral] ([3]; 40° C./75% RH): [96.13] %
- Purity by HPLC (%) After 1 week 75% RH chemical ([3]; 40° C./75% RH): 98.56%
- physical stability (XRPD) upon drying at 50° C. under vacuum and exposure to >95% RH [4]: crystallinity of the compound decreased after drying the sample under vacuum; also recorded: Some of the crystallinity was regained after exposing the sample to high RH overnight
- XRPD pattern Dry [4]: FF-B
- XRPD pattern Humid [4]: FF-B
- XRPD pattern Wet [4]: FF-B
